Legend:
[1] = target: plasminogen/plasmin (Homo sapiens (Human), UniProt P00747); test: Halo assay: tPA-induced fibrinolysis of human blood halos, plasmin inhibitor control; settings: 0.1 μM or 1 μM co-administered with tPA, pre-formed halo
[2] = target: T1, human chymase (rCMA-1) (Homo sapiens (Human), UniProt P23946); test: Plasmin activity in the presence of human chymase; type: biochemical; settings: human plasmin + rCMA-1; fulacimstat 0.1-[…], TY-51469 0.1 or 1 μM
Description: (§1) Active murine cathepsin C was diluted to 20 μg/mL in cathepsin C buffer (50 mM MES, 50 mM NaCl, 5 mM DTT, pH 5.5). Activation was performed by adding equal volumes of recombinant chymase and cathepsin C, adding 50 μg/mL heparin and incubating 1 h at room temperature.

[3] = test system: mouse tail bleeding model; test: Tail bleeding time in mouse; type: in vivo
Description: The tail was cut 3 mm starting from the extremity. The time at which the bleeding stopped was noted. After 30 min, all animals were euthanized.

[4] = target: Plasmin (Homo sapiens (Human), UniProt P00747); test: Serine protease selectivity assay: plasmin; type: biochemical
Description: (§2) The potency of test compounds against several other human serine proteases, including coagulation proteases, in buffer was analyzed in biochemical assays based on the fluorimetric detection of aminomethylcoumarine (AMC) cleaved from specific synthetic peptidic substrates by the respective proteases.
(§3) Serine protease assays were comprised of the following enzymes and substrates (final assay concentrations are given).
(§4) Test compounds were diluted in dimethylsulfoxide (DMSO) to final assay concentrations of 0-50 μM. The respective human serine protease and the respective substrate were diluted in buffer solutions (pH 7.4) consisting of 50 mM Tris/HCl, 100 mM NaCl, 5 mM CaCl2, and 0.1% bovine serum albumin to the final concentrations given below. Diluted test compound or DMSO (1 μL) in assay buffer (20 μL), diluted serine protease solution (20 μL), and substrate solution (20 μL) were added to 384-well microtiter plates (Greiner Bio-One, Frickenhausen, Germany).

[5] = test system: mouse FeCl3-induced injury thrombosis model; test: Ferric chloride-induced injury at the inferior vena cava in mouse; type: in vivo; settings: mouse IVC FeCl3 injury; 10 mg/kg TY-51469 intraperitoneal 1 h prior to anesthesia
Description: A laparotomy was performed, and the guts were gently displaced without injury from the abdominal cavity and conserved in 0.9% NaCl solution (37° C.). The IVC was exposed by separation of the vessel between the renal and iliolumbar veins. […] The guts were subsequently moved back in their original location in the abdomen. Mice were sacrificed 30 min later to access the thrombotic area in the IVC. IVCs were dissected and thrombi were isolated and weighted with an analytical balance (0.1 mg accuracy, Entris II, Sartorius).

[6] = target: recombinant human chymase (Homo sapiens (Human), UniProt P23946); test: Enzymatic chymase activity assay (human)
[7] = target: Mouse chymase (rmMCP-4) (Mus musculus (Mouse), UniProt P21812); test: Mouse plasmin degradation by chymase, cleavage products by LC-MS/MS; type: biochemical; settings: FIG. 3B
Description: (§7) The reaction was stopped with an equal volume of formic acid (FA) (for a final concentration of 4% (v/v) in water) and samples were maintained on ice until protein precipitation.
Proteins from in vitro cleavage assays were first precipitated by the addition of trichloroacetic acid (TCA) to a final concentration of 10% (v/v) and incubated for 30 min at −20° C. […] Protein pellet was washed with cold 100% acetone, air dried, and re-suspended in 50 μL of a solution containing 8 M urea, 10 mM HEPES-KOH (pH 7.4). The protein reduction step was carried out by adding DTT (Thermo Fisher Scientific, Waltham, MA, USA) to a final concentration of 5 mM and boil at 95° C. for 2 min, then incubated at room temperature for 30 min. […] Urea concentration was decreased to 2 M by the addition of 150 μL of 50 mM ammonium bicarbonate (NH4HCO3). The proteins were digested by adding 1 g Pierce MS-grade trypsin (Thermo Fisher Scientific, Waltham, MA, USA) and incubated overnight at 30° C. Digestion was stopped by adding trifluoroacetic acid (TFA) to a final concentration of 0.2% (v/v). The peptides were purified with Pierce C18 100-μL tips column (Thermo Fisher Scientific, Waltham, MA, USA). Briefly, the C18 tip column was first moistened by suctioning 100 μL of 100% acetonitrile (ACN) three times, then equilibrated by suctioning 100 μL of 0.1% (v/v) TFA buffer 3 times. […]

[8] = target: recombinant hamster chymase; test: Enzymatic chymase activity assay (hamster)
[9] = target: Trypsin (Homo sapiens, UniProt P07477); test: Serine protease selectivity assay: trypsin; type: biochemical
Description: as §2, §3, §4

[10] = target: Recombinant human cathepsin G (Homo sapiens (Human), UniProt P08311); test: Selectivity: cathepsin G assay; type: biochemical
Description: Recombinant human cathepsin G (CathG) protein (Protein Technologies, Bayer A G) was used. […] IC50 values were calculated using an in-house software.

[11] = target: Factor XIa (Homo sapiens (Human), UniProt P03951); test: Serine protease selectivity assay: factor XIa; type: biochemical
Description: as §2, §3, §4

[12] = target: Thrombin (Homo sapiens (Human), UniProt P00734); test: Serine protease selectivity assay: thrombin; type: biochemical
Description: as §2, §3, §4

[13] = target: Tissue plasminogen activator (Homo sapiens (Human), UniProt P00750); test: Serine protease selectivity assay: tPA; type: biochemical
Description: as §2, §3, §4

[14] = target: Factor Xa (Homo sapiens (Human), UniProt P00742); test: Serine protease selectivity assay: factor Xa; type: biochemical
Description: as §2, §3, §4

[15] = target: plasmin in mouse thrombus extracts (Mus musculus (Mouse), UniProt P20918); test: Intra-thrombus plasmin enzymatic activity ex vivo, mouse thrombi; type: biochemical; settings: thrombus from venous stenosis in mouse, +10 μM TY-51469
Description: (§5) Plasmin activity was determined by the hydrolysis rate of 50 μM of substrate, D-Ala-Leu-Lys-7-amido-4-methylcoumarin (Sigma Aldrich, Saint-Louis, MO, USA) at 37° C. for 1 h. Chymase activity was determined by the hydrolysis rate of 10 μM of substrate, Suc-Leu-Leu-Val-Tyr-7-amido-4-methylcoumarin (Peptide Institute Inc., Osaka, Japan) at 37° C. for 1 h. The fluorescence released was measured with an Infinite M1000 spectrophotometer (Tecan Group Ltd., Mannerdorf, Switzerland) with λex=370 nm and λem=460 nm.

[16] = target: recombinant mouse mMCP-4 (rmMCP-4) (Mus musculus (Mouse), UniProt P21812); test: Plasmin activity in the presence of murine chymase; type: biochemical; settings: mouse plasmin + rmMCP-4; fulacimstat 0.1-[…], TY-51469 0.1 or 1 μM
Description: as §1, with “temperature. […] Plasmin activity was determined by the hydrolysis rate of 50 μM of substrate, D-Ala-Leu-Lys-7-amido-4-methylcoumarin (Sigma Aldrich, Saint-Louis, MO, USA) at 37° C. for 1 h, combined in a white 96-well microtitre plate.” for “temperature.”

[17] = test system: chymase in mouse thrombus extracts; test: Intra-thrombus chymase enzymatic activity ex vivo, mouse thrombi; type: biochemical; settings: thrombus from venous stenosis in mouse, +10 μM TY-51469
Description: as §5

[18] = test system: mouse venous stenosis (DVT) model; test: Venous stenosis model in mouse (IVC), thrombus measurement; type: in vivo
Description: By doing this, we ensure that the endothelium is not denuded and that a residual flow of 10% in the IVC still remains. The guts were subsequently moved back in their original location in the abdomen and the abdominal cavity was closed in layers with a braided 5.0 absorbable suture. […] The IVCs were dissected post-euthanasia, and thrombi isolated, measured, weighed, and finally stored at −80° C.
(§6) The stenosis was evaluated 24- or 48-hours post-ligation. The IVCs were dissected, and thrombi were isolated, measured, and weighted.
as §6

[19] = target: Plasma kallikrein (Homo sapiens (Human), UniProt P03952); test: Serine protease selectivity assay: plasma kallikrein; type: biochemical
Description: as §2, §3, §4

[20] = test system: mouse venous stenosis model; test: Blood flow (Doppler ultrasound) in venous stenosis model in mice; type: in vivo
Text: The main goal in thrombosis is to ensure sufficient blood flow for an appropriate maintenance of the tissue surrounding the vessel. […] Mice were anesthetized during the procedure (2% isoflurane; 4% oxygen) and their abdomens were shaved and covered with ultrasound gel.

[21] = target: T1, human chymase (rCMA-1); test: Human plasmin degradation by chymase, cleavage products by LC-MS/MS; type: biochemical; settings: FIG. 3A
Description: as §7
Proteins from in vitro cleavage assays were first precipitated by the addition of trichloroacetic acid (TCA) to a final concentration of 10% (v/v) and incubated for 30 min at −20° C. […] Protein pellet was washed with cold 100% acetone, air dried, and re-suspended in 50 μL of a solution containing 8 M urea, 10 mM HEPES-KOH (pH 7.4). […] The proteins were digested by adding 1 g Pierce MS-grade trypsin (Thermo Fisher Scientific, Waltham, MA, USA) and incubated overnight at 30° C. Digestion was stopped by adding trifluoroacetic acid (TFA) to a final concentration of 0.2% (v/v). The peptides were purified with Pierce C18 100-μL tips column (Thermo Fisher Scientific, Waltham, MA, USA). Briefly, the C18 tip column was first moistened by suctioning 100 μL of 100% acetonitrile (ACN) three times, then equilibrated by suctioning 100 μL of 0.1% (v/v) TFA buffer 3 times. Each peptide sample was passed on the balanced C18 tip column by 10 succeeding up-and-downs of 100 μL of the sample. This step was performed twice in order to administer the entire sample on the column. The C18 tip column was then washed with 100 μL of 0.1% (v/v) TFA buffer 3 times. […] This step was carried out 3 times to obtain a final volume of 300 μL. […]

[22] = oral intake; cited from earlier work
[23] = cited from earlier work
[24] = TY-51469 0.1 mg/kg i.p. 1 h after initiation of stenosis, observation 24 h
[25] = TY-51469 1 mg/kg i.p. 1 h after initiation of stenosis, observation 24 h
[26] = TY-51469 10 mg/kg i.p. 1 h after initiation of stenosis, observation 24 h
[27] = TY-51469 10 mg/kg i.p. 24 h after initiation of stenosis, observation 48 h
[28] = 10 mg/kg TY-51469 i.p. 1 h after start of stenosis, 6 h post-ligation
[29] = 10 mg/kg TY-51469 i.p. 1 h after start of stenosis, 24 h post-ligation
[30] = TY-51469 group, non-ligated (pre-ligation baseline)

For `Cl.O=c1cc(C2CCNCC2)n2nc3cccc(Cl)c3c2[nH]1` [Example 3 in WO2015067549], the “tPA-induced fibrinolysis of human blood halos” value [1] was “very significantly reduced”.

With `Cc1c(S(=O)(=O)Nc2ccc(-c3nc(C(=O)O)cs3)cc2S(C)(=O)=O)sc2ccc(F)cc12` [TY-51469, 2-(4-((5-fluoro-3-methylbenzo-[b]thiophene)-2-sulfonamido)-3-(methylsulfonyl)phenyl)thiazole-4-carboxylic acid] the “plasmin activity (fluorescence generation) in presence of chymase” value (“plasmin activity … of chymase” below) [2] was “increased again concentration-dependently”, the “impact on bleeding time (in words)” value ([3]; mouse tail bleeding model) was “no impact on the bleeding time” and the Bleeding time prolongation ([3]; mouse tail bleeding, TY-51469 10 mg/kg) was 1.0 xfold of Ctr. The Bleeding time ([3]; mouse tail bleeding, TY-51469 10 mg/kg IP 1 h prior) was 4.08 min, the IC50 [4] was > 2000 nM and the Thrombus weight [5] was 1.31 mg. The IC50 [6] was 20 nM, the “degradation of plasmin by chymase” value [7] was “prevented” and the IC50 [8] was 66 nM. For the same compound, the IC50 [9] was > 2000 nM, the IC50 ([10]; Cathepsin G) was 1300 nM and the “less potency on cathepsin G than chymase” value ([10]; cathepsin G vs chymase) was 60 fold. The IC50 [11] was > 2000 nM, the IC50 [12] was > 2000 nM and the IC50 [13] was > 2000 nM. The IC50 [14] was > 2000 nM, the Plasmin activity [15] was 13.16 ± 1.26 nM AMC and the “plasmin activity … of chymase” value [16] was “increased again concentration-dependently”. The Chymase activity [17] was 0.33 ± 0.25 nM AMC, the Thrombus length [18, 24] was 3.79 mm and the Thrombus weight [18, 24] was 8.19 mg. It also gave a Thrombus length [18, 25] of 1.79 mm, a Thrombus weight [18, 25] of 4.04 mg and a Thrombus length [18, 26] of 0.22 mm. It also gave a Thrombus weight [18, 26] of 0.47 mg, a Thrombus length [18, 27] of 1.0 mm and a Thrombus weight [18, 27] of 1.29 mg. For the same compound, the IC50 [19] was > 2000 nM, the Abdominal aorta velocity [20, 28] was 487.6 ± 33.1 mm/s and the “Inferior vena cava velocity” value [20, 28] was 171.6 ± 27.1 mm/s. The Abdominal aorta velocity [20, 29] was 505.8 ± 40.4 mm/s, the “Inferior vena cava velocity” value [20, 29] was 158.5 ± 18.3 mm/s and the Abdominal aorta velocity [20, 30] was 508.2 ± 29.7 mm/s. For the same compound, the “Inferior vena cava velocity” value [20, 30] was 124.6 ± 28.7 mm/s and the “degradation of plasmin by chymase” value [21] was “prevented”.

For `Cn1c(=O)oc2cc(-n3cc(C(=O)O)c(=O)n([C@@H]4CCc5c4cccc5C(F)(F)F)c3=O)ccc21` [fulacimstat, 1-(3-methyl-2-oxo-2,3-dihydro-1,3-benzoxazol-6-yl)-2,4-dioxo-3-[(1R)-4-(trifluoromethyl)-2,3-dihydro-1H-inden-1-yl]-1,2,3,4-tetrahydropyrimidine-5-carboxylic acid], the oral bioavailability [22] is given as “bioavailable after oral intake”, the “degradation of plasmin by chymase” value [7] is given as “prevented” and the “plasmin activity … of chymase” value [16] is given as “increased again concentration-dependently”.

For “tPA: Recombinant tissue-type plasminogen activator (rtPA, alteplase), the most widely used fibrinolytic drug”, the “dominant half-life in human plasma” value [23] is listed as < 5 min.

— patent US20250302837A1, “INHIBITORS OF CHYMASE FOR USE IN THE SELECTIVE RESOLUTION OF THROMBI IN THROMBOTIC OR THROMBOEMBOLIC DISORDERS” (SOCPRA SCIENCES SANTÉ ET HUMAINES S.E.C., priority 2022, published 2025)
